Laboratory results reported in publication PMC11500415, “Chemical inhibition of stomatal differentiation by perturbation of the master-regulatory bHLH heterodimer via an ACT-Like domain” (Nature Communications, 2024).

Assays:
Test in all cases: ITC direct binding
Parameters in all cases: species or system A. thaliana
SCRM_ACTL = molecular target: T1, SCRM_ACTL (Arabidopsis thaliana, UniProt Q9LSE2)
T1 construct: SCRM-ACTL (405-494); GST (N, cleaved yes); made in house; host or cells: E. coli BL21
T1 sequence (Q9LSE2 405-494): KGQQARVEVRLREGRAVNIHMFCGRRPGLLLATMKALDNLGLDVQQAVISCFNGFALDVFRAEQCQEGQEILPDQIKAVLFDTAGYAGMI

MUTE_ACTLE162A_E163A = molecular target: T2, MUTE_ACTLE162A_E163A (Arabidopsis thaliana, UniProt Q9M8K6, E162A/E163A)
T2 construct: MUTE-ACTL (114-202); made in house; host or cells: E. coli BL21
T2 sequence (Q9M8K6 114-202 E162A/E163A): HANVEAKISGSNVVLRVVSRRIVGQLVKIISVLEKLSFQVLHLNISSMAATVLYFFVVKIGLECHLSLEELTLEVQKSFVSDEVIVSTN

MUTE_ACTLR133A_R134A = molecular target: T3, MUTE_ACTLR133A_R134A (Arabidopsis thaliana, UniProt Q9M8K6, R133A/R134A); conditions: MUTE_ACTL R133A_R134A
T3 construct: MUTE-ACTL (114-202); made in house; host or cells: E. coli BL21
T3 sequence (Q9M8K6 114-202 R133A/R134A): as the sequence (Q9M8K6 114-202 E162A/E163A) above, with R20A, R21A, A49E, A50E counted along it

MUTE = molecular target: T4, MUTE (Arabidopsis thaliana, UniProt Q9M8K6)
T4 construct: MUTE (1-202); made in house; host or cells: E. coli BL21
T4 sequence (Q9M8K6 whole entry): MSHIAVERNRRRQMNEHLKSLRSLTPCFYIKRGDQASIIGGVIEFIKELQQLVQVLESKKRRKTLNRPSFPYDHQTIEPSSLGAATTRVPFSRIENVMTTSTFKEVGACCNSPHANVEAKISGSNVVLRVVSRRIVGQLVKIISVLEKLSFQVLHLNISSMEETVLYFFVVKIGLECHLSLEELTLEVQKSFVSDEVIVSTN

FAMA_ACTL = molecular target: T5, FAMA_ACTL (Arabidopsis thaliana, UniProt Q56YJ8)
T5 construct: FAMA-ACTL (306-414); GST (N, cleaved yes); made in house; host or cells: E. coli BL21
T5 sequence (Q56YJ8 306-414): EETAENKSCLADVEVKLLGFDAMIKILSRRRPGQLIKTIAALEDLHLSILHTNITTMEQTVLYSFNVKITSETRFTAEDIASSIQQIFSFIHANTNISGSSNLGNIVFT

SPCH = molecular target: T6, SPCH (Arabidopsis thaliana, UniProt Q700C7)
T6 construct: ΔNSPCH (98-364); made in house; host or cells: E. coli BL21
T6 sequence (Q700C7 98-364): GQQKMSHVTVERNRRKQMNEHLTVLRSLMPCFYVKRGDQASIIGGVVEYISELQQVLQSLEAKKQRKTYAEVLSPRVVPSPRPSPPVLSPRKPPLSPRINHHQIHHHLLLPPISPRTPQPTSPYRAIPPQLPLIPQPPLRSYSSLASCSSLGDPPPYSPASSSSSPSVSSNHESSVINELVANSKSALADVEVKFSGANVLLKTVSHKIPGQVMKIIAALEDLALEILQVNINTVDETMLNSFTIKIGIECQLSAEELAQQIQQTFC

O=C1C(c2ccccc2)=NC(NS(=O)(=O)c2ccccc2)(c2ccccc2)N1S(=O)(=O)c1ccccc1 (stereo not drawn) [Stomidazolone]
-T△S (SCRM_ACTL): 6.1 ± 0.2
Kd (SCRM_ACTL): 78.4 ± 5.1 µM
△G (SCRM_ACTL): -3.2 ± 0.2
△H (SCRM_ACTL): -9.3 ± 0.4
-T△S (MUTE_ACTLE162A_E163A; MUTE_ACTL E162A_E163A): 3.1 ± 0.3
Kd (MUTE_ACTLE162A_E163A; MUTE_ACTL E162A_E163A): 85.5 ± 5.5 µM
△G (MUTE_ACTLE162A_E163A; MUTE_ACTL E162A_E163A): -4.5 ± 0.2
△H (MUTE_ACTLE162A_E163A; MUTE_ACTL E162A_E163A): -7.6 ± 0.5
increase in the Kd value versus wild-type MUTE (MUTE_ACTLE162A_E163A; authors' response to reviewers, data of the original Fig. S3): ~5 fold
-T△S (MUTE_ACTLR133A_R134A): 5.1 ± 0.2
Kd (MUTE_ACTLR133A_R134A): 127 ± 28.5 µM
△G (MUTE_ACTLR133A_R134A): -3.8 ± 0.2
△H (MUTE_ACTLR133A_R134A): -8.9 ± 0.4
-T△S (MUTE): 17.3 ± 0.4
Kd (MUTE): 7.8 ± 1.1 µM
△G (MUTE): -3.3 ± 0.2
△H (MUTE): -20.6 ± 0.4
-T△S (FAMA_ACTL): 4.8 ± 0.2
Kd (FAMA_ACTL): 110 ± 13.8 µM
△H (FAMA_ACTL): -8.2 ± 0.5
-T△S (SPCH): 3.6 ± 0.2
Kd (SPCH): 79.6 ± 3.6 µM
△G (SPCH): -2.6 ± 0.2
△H (SPCH): -6.2 ± 0.5
